This is an account of results in publication PMC11590026, “Synthesis, enzyme inhibition, and docking studies of new schiff bases of disalicylic acid methylene-based derivatives as dual-target antibacterial agents” (Frontiers in Chemistry, 2024).

As usually defined, the MIC is the smallest concentration in the dilution series that meets the test's criterion for growth inhibition. As a reminder, the IC50 is the concentration that inhibits the measured activity by half. What is called MFC is the lowest tested concentration that kills the fungus rather than only halting it. Higher therefore signals weaker fungicidal potency. Broadly, the MBC is the smallest concentration meeting the test's criterion for killing. The term viability denotes a per cent measure of how many cells are alive, often set against a control. A high value points to better survival.

The test system of data set [1] is B. subtilis. Set-up: method as in Al-Wahaibi et al., 2024. To be noted: ref Al-Wahaibi et al., 2024; cited from earlier work.
The target in a further data set is Topoisomerase IV. To be noted: earlier work; ref Al-Wahaibi et al., 2024; cited from earlier work.
The test system of data set [2] is S. aureus. On the set-up: method as in Al-Wahaibi et al., 2024. To be noted: ref Al-Wahaibi et al., 2024; cited from earlier work.
Data set [3] has as its system P. aeruginosa. On the set-up: method as in Al-Wahaibi et al., 2024. To be noted: ref Al-Wahaibi et al., 2024; cited from earlier work.
Data set [4] concerns E. coli. On the set-up: method as in Al-Wahaibi et al., 2024. To be noted: ref Al-Wahaibi et al., 2024; cited from earlier work.
The test system of the next data set is C. albicans. Kind of data set: Antifungal assay (MIC/MFC), twofold serial dilution.
The next data set concerns the target DHFR E. Coli (Escherichia coli, UniProt P0ABQ4). Kind of data set: DHFR inhibitory assay. In kind it is biochemical.
Data set [5] has as its system S. aureus (ATCC 43300) (MRSA). Kind of data set: Antibacterial assay against multi-drug resistant strains (MIC/MBC). Type of data set: cell-based, Staphylococcus aureus. To be noted: Staphylococcus aureus, S. aureus ATCC 43300 (MRSA).
For the next data set, the target named is E. coli DNA gyrase (Escherichia coli, UniProt P0AES6). The data set is described as follows: E. coli DNA gyrase supercoiling inhibitory assay. In kind it is biochemical. On the procedure:
The fluorescence was measured with a microplate reader (BioTek Synergy H4,
NaCl and 50 mM MgCl2) was added to terminate the enzymatic reaction. After
Initial screening was done at 100 or 10 μM concentration

For data set [6], the system named is MDRB (multi-drug resistant bacteria). Kind of data set: MIC/MBC against the MDRB panel as a whole.
Text: Norfloxacin, a broad-spectrum antibiotic, worked as positive control.
In data set [7] the test system is P. aeruginosa. The data set is described as follows: MIC/MBC assay, twofold serial dilution. Type of data set: cell-based, Pseudomonas aeruginosa. The protocol:
(§1) The results of this in vitro assay test are consistent with the findings of the antimicrobial sensitivity test. […] It has lower antimicrobial activity than ciprofloxacin against all pathogens tested.
(§2) The MBC differs from the MIC. […]
(§3) 4.2.2. Minimum inhibitory concentration assay
(§4) In 96-well microtiter plates and […] of fresh bacterial culture of a single McFarland unit overnight, a double serial dilution of each compound […] in sterile standard saline were prepared to every single source well. Ciprofloxacin antibiotic (5 mg / mL - 1) and normal saline were included as standard reference in each assay. The plates were incubated at 37 0C overnight. As an indicator of bacterial growth, […] of p-iodonitrotetrazolium violet (INT) was added to each well and incubated at 37 0C for 30 […]
(§5) min. MIC values are recorded as the lowest concentration of the extract that completely inhibited bacterial growth that is clear well. The colorless tetrazolidium salt acts as an electron accepter and is reduced to a red colored formazan product by biological activity organisms. Where bacterial growth was inhibited, the solution in the well remained clear after incubation with INT. […]

The subject of data set [8] is S. aureus. Kind of data set: MIC/MBC assay, twofold serial dilution. In kind it is cell-based, Staphylococcus aureus. The protocol:
as §1, §2, §3, §4, §5

The nature of data set [9]: Cell viability assay (MTT). Type of data set: cell-based. To be noted: human, MCF-10A, 4-day incubation. On the procedure:
The vitality of the investigated compounds was assessed using the MCF-10A cell line, which is a normal human mammary gland epithelial cell line. Following a 4-day incubation period on MCF-10A cells with a concentration of 50 µM for each compound being studied, the viability of the cells was assessed using the MTT test ([Hisham et al., 2022]; [Mahmoud et al., 2022]).
4.2.3. Cell Viability assay
MTT assay was carried out to study the effect of compounds on mammary epithelial cells (MCF-10A). The medium in which cells were propagated contained Dulbecco's modified Eagle's medium (DMEM)/ Ham's F-12 medium (1:1) supplemented with epidermal growth factor (20 ng/mL), hydrocortisone (500 ng/mL), insulin (10 μg/mL), 2 mM glutamine and 10% fetal calf serum. After every 2-3 days, the cells were passaged using trypsin ethylenediamine tetra acetic acid (EDTA). The cells were seeded at a density of 10^4 cells mL-1 in flat-bottomed culture plates containing 96 wells each. After 24 h, medium was removed from the plates and the compounds in (in 0.1% DMSO) were added (in 200 μL medium to yield a final concentration of 0.1% v/v) to the wells of plates. A single compound was designated with four wells followed by incubation of plates for 96h at 37°C. After incubation, medium was removed completely from the plates followed by addition of MTT (0.4 mg/mL in medium) to each well and subsequent incubation of plates for 3h. MTT (along with the medium) was removed and DMSO (150μL) was added to each well of the culture plates, followed by vortexing and subsequent measurement of absorbance (at 540 nm) using microplate reader. The data are shown as percentage inhibition of proliferation in comparison with controls

Another data set deals with E. coli (ATCC BAA-196). The data set is described as follows: Antibacterial assay against multi-drug resistant strains (MIC/MBC). Type of data set: cell-based, Escherichia coli. To be noted: Escherichia coli.
For another data set, the system named is Gram-positive bacteria. Kind of data set: MBC assay, Gram-positive bacteria together. Type of data set: cell-based. To be noted: Gram-positive bacteria (B. subtilis, S. aureus). From the text: The MBC differs from the MIC.
Another data set deals with A. flavus. The data set is described as follows: Antifungal assay (MIC/MFC), twofold serial dilution. To be noted: for MIC: A. flavus.
Data set [10] concerns P. aeruginosa (ATCC BAA-2111). Kind of data set: Antibacterial assay against multi-drug resistant strains (MIC/MBC). To be noted: Pseudomonas aeruginosa. In kind it is cell-based, Pseudomonas aeruginosa.
Data set [11] relates to B. subtilis. Kind of data set: MIC/MBC assay, twofold serial dilution. Type of data set: cell-based, Bacillus subtilis. The protocol: as §1, §2, §3, §4, §5
Data set [12] relates to E. coli. The data set is described as follows: MIC/MBC assay, twofold serial dilution. In kind it is cell-based, Escherichia coli. To be noted: Escherichia coli. On the procedure:
as §1, §2, §3, §4, §5

Converted amounts (≈) assume the structure as drawn. “And” between values parts separate entries of the source, which are not always exact repeats. Identical values can stand only once. Like-named read-outs stand apart in the source and are kept apart here.

DHFR E. Coli, sequence (P0ABQ4 whole entry): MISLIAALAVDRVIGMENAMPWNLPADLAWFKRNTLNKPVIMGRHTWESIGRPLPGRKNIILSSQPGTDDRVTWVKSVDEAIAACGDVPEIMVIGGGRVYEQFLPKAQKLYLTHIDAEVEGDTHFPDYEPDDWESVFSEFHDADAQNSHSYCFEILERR

For the compound `COc1ccccc1/C=N/NC(=O)c1cc(Cc2ccc(O)c(C(=O)N/N=C/c3ccccc3OC)c2)ccc1O` [Compound 5h], the minimal inhibitory concentration (MIC) with B. subtilis [1] is 0.050 µg/mL (≈ 0.0905 µM); in the data set with S. aureus [2] it was 0.030 µg/mL (≈ 0.0543 µM); in the data set on P. aeruginosa [3], 0.060 µg/mL (≈ 0.109 µM); in the data set with E. coli [4] it was 0.065 µg/mL (≈ 0.118 µM). Also, the “Times less potent/effective than ciprofloxacin (MIC)” value in the data set on B. subtilis [1] is “five times less potent than ciprofloxacin”. Besides, at Topoisomerase IV, the IC50 was 3.5 µM.

As to `O=C1Nc2ccc([N+](=O)[O-])cc2/C1=N/NC(=O)c1cc(Cc2ccc(O)c(C(=O)N/N=C3\C(=O)Nc4ccc([N+](=O)[O-])cc43)c2)ccc1O` [Compound 6l], the MIC with C. albicans (C. albicans) is 19.50 ± 1 µM (≈ 13 µg/mL); against C. albicans (Candida albicans), 19.5 µM (≈ 13 µg/mL); in [5] (read-out: MIC), 2.2 ± 0.1 µM (≈ 1.46 µg/mL); in [6] (read-out: MIC values) it was 2.2 to 4.5 µM (≈ 1.46 to 2.99 µg/mL); in the data set with P. aeruginosa [7] (Pseudomonas aeruginosa, read-out: MIC), 0.057 ± 0.004 µM (≈ 0.0379 µg/mL); in the data set with S. aureus [8], 0.021 ± 0.002 µM (≈ 0.014 µg/mL). Further, the MIC with S. aureus [8] (Staphylococcus aureus, read-out: MIC) is 0.021 µM (≈ 0.014 µg/mL); in the data set with E. coli (ATCC BAA-196) (ATCCBAA196, read-out: MIC), 2.7 ± 0.1 µM (≈ 1.79 µg/mL); in the data set on A. flavus it was 15.60 µM and 15.60 ± 1 µM; against A. flavus (Aspergillus flavus) it was 14.5 to 19.5 µM (≈ 9.64 to 13 µg/mL); in data set [10] (ATCCBAA2111, read-out: MIC), 4.5 ± 0.2 µM (≈ 2.99 µg/mL); in the data set on B. subtilis [11] (Bacillus subtilis, read-out: MIC), 0.026 ± 0.002 µM (≈ 0.0173 µg/mL). In the data set on E. coli [12] (read-out: MIC), the MIC was found to be 0.057 ± 0.004 µM (≈ 0.0379 µg/mL). Moreover, the MFC in the data set on C. albicans (Candida albicans) stood at 39.2 ± 3 µM (≈ 26.1 µg/mL); in the data set with A. flavus (Aspergillus flavus), 31.1 ± 2 µM (≈ 20.7 µg/mL). Besides, the IC50 at DHFR E. Coli was found to be 4.25 ± 0.1 µM; on E. coli DNA gyrase it was 0.087 ± 0.006 µM. In addition, the MBC in [5] (read-out: MBC) is 4.5 ± 0.2 µM (≈ 2.99 µg/mL); in data set [6] (read-out: MBC values), 4.5 to 6.5 µM (≈ 2.99 to 4.32 µg/mL); in the data set with P. aeruginosa [7], 0.078 ± 0.006 µM (≈ 0.0518 µg/mL); in the data set with P. aeruginosa [7] (Pseudomonas aeruginosa, read-out: MBC), 0.078 µM (≈ 0.0518 µg/mL); with S. aureus [8] it was 0.033 ± 0.002 µM (≈ 0.0219 µg/mL); in the data set with S. aureus [8] (Staphylococcus aureus, read-out: MBC), 0.033 µM (≈ 0.0219 µg/mL). Also, the MBC against E. coli (ATCC BAA-196) (ATCCBAA196) is 4.8 ± 0.2 µM (≈ 3.19 µg/mL); in the data set on Gram-positive bacteria, 0.028 to 0.058 µM (≈ 0.0186 to 0.0385 µg/mL); in [10] (ATCCBAA2111) it was 6.5 ± 0.25 µM (≈ 4.32 µg/mL); in the data set with B. subtilis [11] it was 0.043 ± 0.003 µM (≈ 0.0286 µg/mL); in the data set with B. subtilis [11] (Bacillus subtilis, read-out: MBC), 0.043 µM (≈ 0.0286 µg/mL); in the data set on E. coli [12] (read-out: MBC) it was 0.077 ± 0.006 µM (≈ 0.0512 µg/mL). Also, the “Potency relative to novobiocin against DNA gyrase” value on E. coli DNA gyrase is “twice as potent as novobiocin”. In the data set on S. aureus [8], the “Times more effective than ciprofloxacin (MIC)” value amounted to 1.5 times. This compound also yielded a viability at 96 h, 50 µM in data set [9] of 89%. Besides, the “Times less effective than ciprofloxacin (MIC)” value with B. subtilis [11] was 2.5 times.

As for `CN(C)c1ccc(/C=N/NC(=O)c2cc(Cc3ccc(O)c(C(=O)N/N=C/c4ccc(N(C)C)cc4)c3)ccc2O)cc1` [Compound 5i], the “Times less potent/effective than ciprofloxacin (MIC)” value in the data set on B. subtilis [1] is 7 times. Also, the IC50 at Topoisomerase IV was 5.8 µM.
